Experimental data published in PubChem BioAssay AID463204 (Broad Institute, 2010).
Activity calls are given as the source filed them.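 Rule for the calls: active = AC50 no more than ten times the top concentration tested, that is within one log above it; inconclusive = flat curve fit with activity between 30% and 70%, or invalid poor fit; inactive = AC50 beyond ten times the top tested dose.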

test system: S. cerevisiae Mot1-301 ts growth rescue, BacTiter-Glo ATP luminescence; assay: growth rescue of Mot1-301 ts yeast, confirmation, SUMOylation pathway inhibitor project, whole organism, S. cerevisiae, Mot1-301 ts mutant, luminescence, dose retest (AID 463204);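 note: growth at restrictive 38.5 degrees C of Mot1-301 OY566 strain; actives raise luminescence by restoring growth of the ts mutant at high temperature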

Row | SMILES | AC50
1 | CN(C)C(=O)c1c2c(nc3ccccc13)CCCC2 | > 42 µM (inactive)
2 | CC1(C)Cc2c(cnn2-c2ccc(F)cc2)C(NC(=O)CCCN2CCCCC2=O)C1 (configuration not stated) | > 42 µM (inactive)
3 | O=C(Nc1ccc([N+](=O)[O-])cn1)c1ccc2c(c1)OCO2 | > 42 µM (inactive)
4 | Cc1nn(CCOc2ccccc2)c(=O)n1-c1ccccc1F | > 42 µM (inactive)
5 | COc1ccc(C(=O)N2CCN(c3ccc(NC(=O)c4cccnc4)cc3)CC2)cc1 | > 42 µM (inactive)
6 | CN(CC(=O)NCc1cccs1)S(=O)(=O)c1cccc2nsnc12 | > 42 µM (inactive)
7 | CCC(C)[C@H](NC(=O)Nc1ccc(S(N)(=O)=O)cc1)C(=O)OC (some centres not stated) | > 42 µM (inactive)
8 | CN(CC(=O)Nc1ccccc1Sc1ccccc1)Cc1nc2ccccc2c(=O)[nH]1 | > 42 µM (inactive)
9 | CS(=O)(=O)c1ccc(Cl)c(C(=O)O)c1 | > 42 µM (inactive)
10 | COc1ccc(CNC(=O)c2cc(=O)c3cc(C)cc(C)c3o2)cc1 | > 42 µM (inactive)
11 | O=C1CCC(C(=O)N2CCN(c3ccccc3)CC2)CN1CC1CCCCC1 (configuration not stated) | > 42 µM (inactive)
12 | COc1ccccc1-c1nc2ccccc2nc1-c1ccccc1OC | > 42 µM (inactive)
13 | CCOC(=O)C1(Cc2cccc(Cl)c2)CCCN(C(=O)CCOC)C1 (configuration not stated) | > 42 µM (inactive)
14 | CCn1c(SCC(=O)Nc2nc(-c3ccccc3)cs2)nnc1-c1ccccc1 | > 42 µM (inactive)
15 | Cc1cc(C)cc(N(CC(=O)Nc2cccc(C)n2)S(=O)(=O)c2c(C)noc2C)c1 | > 42 µM (inactive)
16 | COc1ccc(NC(=O)C2CCCN2S(=O)(=O)c2cccc3cccnc23)cc1OC (configuration not stated) | > 42 µM (inactive)
17 | CCOC(=O)c1sc(NC(=O)CSc2n[nH]c(-c3ccccc3)n2)c(C#N)c1C | 20.6 µM
18 | CCCCn1c(SCC(=O)Nc2cc(C)on2)nnc1-c1ccco1 | > 42 µM (inactive)
19 | COc1ccc(N2CCN(C(=O)Cn3nnc(-c4ccc(OC)c(OC)c4)n3)CC2)cc1 | > 42 µM (inactive)
20 | O=C(OCc1nc2ccsc2c(=O)[nH]1)c1ccco1 | > 42 µM (inactive)
21 | COc1ccc(NC(=O)CN(c2ccc(C(C)C)cc2)S(=O)(=O)c2c(C)noc2C)cc1OC | > 42 µM (inactive)
22 | Cc1cc(C(=O)N/N=C/c2ccc3c(c2)OCO3)c2ccccc2n1 | > 42 µM (inactive)
23 | O=C(Cn1nc(C(F)(F)F)c2c1CCCC2)N1CCOCC1 | > 42 µM (inactive)
24 | CCn1c(-c2ccccc2)c(C(=O)CC#N)c2ccccc21 | > 42 µM (inactive)
25 | Nc1cc(-c2ccc(Cl)cc2)nn1S(=O)(=O)c1ccc(Cl)cc1 | > 42 µM (inactive)
26 | COc1cc(/C=C2\NC(=S)N(C)C2=O)ccc1OCc1cccc(F)c1 | > 42 µM (inactive)

Row | SMILES | AC50
27 | Cc1ccc(C(=O)O)cc1N=Cc1cc(Br)cc(Br)c1O | 2.45 µM
28 | O=C(NC1CCCCC1)c1ccc2snnc2c1 | > 42 µM (inactive)
29 | O=C(O)c1cc(S(=O)(=O)Nc2ccc(OCc3ccccc3)cc2)ccc1Br | > 42 µM (inactive)
30 | CC(C)(C)NC(=O)NC(=O)CN1CCN(S(=O)(=O)c2ccc3c(c2)OCCO3)CC1 | > 21 µM (inactive)
31 | COC(=O)C1=C(C)NC(C)=C([N+](=O)[O-])C1c1ccccc1C(F)(F)F (configuration not stated) | > 42 µM (inactive)
32 | O=C(NC1CCCC1)C(c1cccs1)N(C(=O)c1ccno1)c1ccccc1 (configuration not stated) | > 42 µM (inactive)
33 | COc1ccc(NC(=O)Nc2ccccc2C(=O)N2CCCC2)cc1 | > 42 µM (inactive)
34 | CC(SC#N)C(=O)C12CC3CC(CC(C3)C1)C2 (configuration not stated) | 6.33 µM
35 | CCOC(=O)c1cc(C#N)c(Oc2ccccc2OC)nc1-c1ccccc1 | > 42 µM (inactive)
36 | COc1cc(C(=O)N/N=C/c2ccccn2)cc(OC)c1OC | > 42 µM (inactive)
37 | O=C1CCCN1CCC1CCN(C2CC(=O)N(c3ccc(Cl)cc3)C2=O)CC1 (configuration not stated) | 10.1 µM
38 | CS(=O)(=O)N(CC(=O)N1CCCCCC1)Cc1ccc(Cl)cc1 | > 42 µM (inactive)
39 | CCn1c(SCC(=O)Nc2ccc(NC(=O)c3ccco3)cc2)nnc1-c1cccs1 | > 42 µM (inactive)
40 | O=C(Nc1ccc(Cl)cc1)C1=Cc2ccccc2OC1 | 40.9 µM
41 | C/C(CC(=O)Nc1cccnc1)=N\NC(=O)C(C)Oc1ccc(Cl)cc1Cl (configuration not stated) | > 42 µM (inactive)
42 | O=C(c1ccccc1F)N1CCCc2ccccc21 | > 42 µM (inactive)
43 | COc1cc(C(=O)OCC(=O)NCc2ccccc2)cc(NC(=O)c2ccco2)c1OC | > 42 µM (inactive)
44 | O=C(CSc1ncccc1C(=O)O)NC1CCCCC1 | > 42 µM (inactive)
45 | [N-]=[N+]=NCCN1CCC(O)CCC1=O (configuration not stated) | > 42 µM (inactive)
46 | CCOc1ccccc1CN1CCNC(=O)C1CC(=O)NCCN1CCOC1=O (configuration not stated) | > 42 µM (inactive)
47 | CCCCCCOc1ccc(N2C(=O)CC(N3CCC(C(=O)OCC)CC3)C2=O)cc1 (configuration not stated) | 4.96 µM
48 | CN1/C(=C\C(=O)COC(=O)c2ccc([N+](=O)[O-])o2)C(C)(C)c2ccccc21 | 13.6 µM
49 | COc1ccc(C(=O)NC(=S)Nc2ccc(CN3CCCCC3)cc2)cc1Cl | > 42 µM (inactive)
50 | CCN(CC)S(=O)(=O)c1ccc(N2CCCC2)c(C(=O)OCC(=O)Nc2cc(C)on2)c1 | > 42 µM (inactive)
51 | Cc1cccc(N2C(=O)CSC2c2cccnc2)c1 (configuration not stated) | > 42 µM (inactive)
52 | COc1ccc(S(=O)(=O)N2CCOC2CNC(=O)C(=O)NCc2ccncc2)cc1C (configuration not stated) | > 42 µM (inactive)

Row | SMILES | AC50
53 | C=CCNC(=O)c1onc(CSc2cccc(C)c2)c1C(=O)O | > 42 µM (inactive)
54 | COc1ccc(N2C(=O)CCC(C(=O)NCc3cccnc3)C2c2ccc(OC)c(OC)c2)cc1 (configuration not stated) | > 42 µM (inactive)
55 | CC1(C)C2CC=C(/C=N/NC(=S)Nc3cccnc3)C1C2 (configuration not stated) | > 42 µM (inactive)
56 | Cc1cc(C)n(CCCNC(=O)CN(C)S(=O)(=O)c2ccc(Cl)cc2)n1 | > 42 µM (inactive)
57 | CC(C)CNc1cc(=O)n(C)c(=O)n1C | > 42 µM (inactive)
58 | O=C(Nc1ccc(F)cc1)c1ccc(CSc2ccccc2)o1 | > 42 µM (inactive)
59 | COc1cccc(-c2nn(-c3ccccc3)cc2/C=C(/NC(=O)c2ccccc2)C(=O)O)c1 | > 42 µM (inactive)
60 | CCN(CC)CCNC(=O)CCn1c(=S)[nH]c2cc3c(cc2c1=O)OCO3 | > 110 µM (inactive)
61 | O=C(CCn1cnnn1)Nc1ccc(Cl)cc1Cl | > 42 µM (inactive)
62 | O=C(CSc1ncn[nH]1)Nc1cccc(S(=O)(=O)N2CCCCCC2)c1 | > 42 µM (inactive)
63 | CC[n+]1c(/C=C(\C)SC)sc2ccccc21 | 29.5 µM
64 | O=C(NCc1ccccn1)C1Nc2ccc(C(F)(F)F)cc2C2C=CCC12 (configuration not stated) | > 42 µM (inactive)
65 | CCN1CSC(=S)N(Cc2ccc(OC)cc2)C1 | 4.01 µM
66 | Cc1cccc(NC(=O)CSCC(=O)N2CCCc3ccccc32)c1 | > 42 µM (inactive)
67 | CCn1cc(CCCC(=O)NCc2ccccc2OC)c2ccccc21 | > 42 µM (inactive)
68 | Cc1ccc(-c2csc(NC(=O)CSc3nc(C)cs3)n2)cc1 | > 42 µM (inactive)
69 | Cc1cccc2nc3ccccc3cc12 | > 42 µM (inactive)
70 | C/C=C/C(=O)N1c2ccc(C)cc2C(C)=CC1(C)C | > 42 µM (inactive)
71 | CCN(CC)c1ccc2c(C)c(CN3CCOCC3)c(=O)oc2c1 | > 42 µM (inactive)
72 | CNS(=O)(=O)c1cccc(C(=O)OCC(=O)Nc2ccc(OC)cc2[N+](=O)[O-])c1 | > 42 µM (inactive)
73 | CSc1ncccc1C(=O)NC1CCCc2c1cnn2-c1ccc(C)c(C)c1 (configuration not stated) | > 42 µM (inactive)
74 | CCOc1cc(-c2ccccc2)nc(N)n1 | > 42 µM (inactive)
75 | COC(=O)c1ccc(CN2CCN(C3CCCCC3)C(CCO)C2)cc1 (configuration not stated) | > 42 µM (inactive)
76 | CCC1(c2ccccc2)NC(=O)N(CC(=O)N(C)CC(=O)Nc2ccc(F)c(F)c2F)C1=O (configuration not stated) | > 42 µM (inactive)
77 | CCn1ncc(Br)c1C(=O)Nc1ccc(OC(F)(F)F)cc1 | > 42 µM (inactive)
78 | O=C1NC(=O)C(=Cc2ccc(N3CCOCC3)cc2)C(=O)N1 | > 42 µM (inactive)

Row | SMILES | AC50
79 | COc1ccc(C2C(C(=O)Nc3cc(OC)c(OC)c(OC)c3)c3ccccc3C(=O)N2C)cc1 (configuration not stated) | > 42 µM (inactive)
80 | Nc1nnnn1CC(=O)N/N=C/c1cccs1 | > 42 µM (inactive)
81 | COc1ccccc1C1NC(=O)CS1 (configuration not stated) | > 42 µM (inactive)
82 | CCn1c(N2CCN(C(=O)C34CC5CC(CC(C5)C3)C4)CC2)nc2ccccc21 | > 42 µM (inactive)
83 | CC(=O)NCCc1nc2cc(NC(=O)c3ccc(F)cc3)ccc2n1C | > 42 µM (inactive)
84 | O=C(O)CCC(NC(=O)c1ccc(Cl)cc1)C(=O)O (configuration not stated) | > 42 µM (inactive)
85 | CCn1nnc(-c2ccccc2NC(=O)c2cnccn2)n1 | > 42 µM (inactive)
86 | O=S(=O)(NCC1CCCN(Cc2ccccc2O)C1)c1cccc2cccnc12 (configuration not stated) | > 42 µM (inactive)
87 | O=S(=O)(NCC1CCCO1)c1cc(Cl)ccc1Br (configuration not stated) | > 42 µM (inactive)
88 | O=C(COc1cnc2ccccc2n1)NCCC1=CCCCC1 | > 42 µM (inactive)
89 | CC(=Nc1ccccc1)C1=C(O)CC(C)(C)CC1=O | > 42 µM (inactive)
90 | CCCCOc1ccc(C(=O)Nc2ccc(CN3CCOCC3)cc2)cc1 | > 42 µM (inactive)
91 | Cc1ccc2nc(SCC(=O)Nc3cccc(S(N)(=O)=O)c3)[nH]c2c1 | > 42 µM (inactive)
92 | CC(C)[C@H](NC(=O)C1(c2ccccc2)CCN(C(=O)OC(C)(C)C)CC1)C(=O)O | > 42 µM (inactive)
93 | COc1ccccc1CSc1ncc(-c2ccc([N+](=O)[O-])cc2)[nH]1 | > 42 µM (inactive)
94 | CCS(=O)(=O)N1CCC(C(=O)N2CCc3ccccc3C2)CC1 | > 42 µM (inactive)
95 | O=Nc1c(-c2cccc([N+](=O)[O-])c2)nc2ncccn12 | 4.09 µM
96 | O=C1CCc2cc(S(=O)(=O)N3CCC(C(=O)NC4CCCC4)CC3)ccc2N1 | > 42 µM (inactive)
97 | Cc1c(NC(C)c2cc(Cl)ccc2O)c(=O)n(-c2ccccc2)n1C (configuration not stated) | > 42 µM (inactive)
98 | CCN(CC)CCCn1c(=S)[nH]c2ccc(Cl)cc2c1=O | > 42 µM (inactive)
99 | Cc1cnc(NC(=O)CSc2nc3ccccc3s2)s1 | > 42 µM (inactive)
100 | CSc1ccc(Cl)c(C(=O)Nc2ccc(N3CCOCC3)cc2)c1 | > 42 µM (inactive)
101 | COCC(=O)n1nc(NCc2ccc(OC)cc2)nc1NCc1ccc(OC)cc1 | > 42 µM (inactive)
102 | CN(C)c1ccc(/C=C/c2cccc[n+]2[O-])cc1 | > 42 µM (inactive)
